Laboratory results: article PMC6374102 (Science Advances, 2019)

Assays:
[1] = system: λ-carrageenan–induced inflammatory pain injected rats; experiment: Hargreaves thermal nociception test in λ-carrageenan-induced paw edema model; type: in vivo; conditions: LENK-SQ NPs 20 mg/kg i.v.; morphine 1 mg/kg; rat
[2] = In vitro release of LENK from NPs / bioconjugate stability in serum; type: in vitro ADME; conditions: diluted male SWISS mouse serum (30% in 5% dextrose), 37°C; RP-HPLC, UV 257 nm

SMILES: CC(C)=CCC/C(C)=C/CC/C(C)=C/CC/C=C(\C)CC/C=C(\C)CCC(=O)OCOC(=O)C(CC(C)C)NC(=O)C(Cc1ccccc1)NC(=O)CNC(=O)CNC(=O)C(N)Cc1ccc(O)cc1 (centres unmarked) [LENK-SQ-Diox, Leu-enkephalin-squalene with dioxycarbonyl linker]
- AUC of PWL time course, comparison between treatments [1]: significantly higher AUC than morphine and LENK-SQ-Am NPs
- Time that the released LENK peptide still lasted in serum [2]: over 10 hours
